Laboratory results as given in publication PMC5749112 (The Journal of General Physiology, 2018).
“Also recorded” adds a separate entry of the source. Like-named read-outs stand apart in the source and are kept apart here.

Assays:
[1] = target: T1, PnuTSw (Shewanella woodyi, UniProt B1KPL9); assay type: binding; details: for Dissociation constant Kd: WT PnuTSw in DDM, pH 8.0
T1 sequence (B1KPL9 1-212): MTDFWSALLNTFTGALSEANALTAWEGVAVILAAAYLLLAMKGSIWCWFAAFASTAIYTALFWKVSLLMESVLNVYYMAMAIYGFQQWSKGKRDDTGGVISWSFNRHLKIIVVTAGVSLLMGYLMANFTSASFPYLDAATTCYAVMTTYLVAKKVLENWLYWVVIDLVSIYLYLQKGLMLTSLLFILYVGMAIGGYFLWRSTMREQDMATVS

[2] = target: T2, PnuTSw reconstituted in proteoliposomes (Shewanella woodyi, UniProt B1KPL9); assay type: biochemical; details: 1 mM unlabeled analogue in outside buffer, 500 nM [3H]thiamine
T2 sequence (B1KPL9 1-212): T1 sequence (B1KPL9 1-212)

[3] = target: T2, PnuTSw reconstituted in proteoliposomes; assay type: biochemical; details: proteoliposomes loaded with 1 mM unlabeled ligand
[4] = target: T3, PnuTSw mutant Y159F (Shewanella woodyi, UniProt B1KPL9, W159F); details: ITC, 25°C
T3 sequence (B1KPL9 1-212 W159F): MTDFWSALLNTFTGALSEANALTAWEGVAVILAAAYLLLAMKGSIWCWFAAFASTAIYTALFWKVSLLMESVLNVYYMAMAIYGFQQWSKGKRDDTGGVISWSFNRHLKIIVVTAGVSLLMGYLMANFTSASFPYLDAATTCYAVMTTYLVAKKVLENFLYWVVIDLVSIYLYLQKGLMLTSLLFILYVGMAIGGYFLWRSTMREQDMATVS

[5] = target: T4, PnuTSw mutant Y162F (Shewanella woodyi, UniProt B1KPL9, W162F); details: ITC, 25°C
T4 sequence (B1KPL9 1-212 W162F): as the sequence (B1KPL9 1-212 W159F) above, with F159W, W162F counted along it

[6] = target: T5, PnuTSw mutant Y188A (Shewanella woodyi, UniProt B1KPL9, Y188A); details: ITC, 25°C
T5 sequence (B1KPL9 1-212 Y188A): as the sequence (B1KPL9 1-212 W159F) above, with F159W, Y188A counted along it

[7] = target: T6, PnuTSw mutant Y77A (Shewanella woodyi, UniProt B1KPL9, Y77A); details: ITC, 25°C
T6 sequence (B1KPL9 1-212 Y77A): as the sequence (B1KPL9 1-212 W159F) above, with Y77A, F159W counted along it

[8] = target: PnuTSw mutant D166A; details: ITC, 25°C
[9] = target: T7, PnuTSw mutant W199A (Shewanella woodyi, UniProt B1KPL9, W199A); details: ITC, 25°C
T7 sequence (B1KPL9 1-212 W199A): as the sequence (B1KPL9 1-212 W159F) above, with F159W, W199A counted along it

[10] = target: T8, PnuTSw mutant W88A (Shewanella woodyi, UniProt B1KPL9, W88A); details: ITC, 25°C
T8 sequence (B1KPL9 1-212 W88A): as the sequence (B1KPL9 1-212 W159F) above, with W88A, F159W counted along it

[11] = target: T8, PnuTSw mutant W88A; details: proteoliposomes
[12] = target: T3, PnuTSw mutant Y159F; test: biochemical
[13] = target: T4, PnuTSw mutant Y162F; test: biochemical
[14] = target: T5, PnuTSw mutant Y188A; test: biochemical
[15] = target: T6, PnuTSw mutant Y77A; test: biochemical
[16] = target: T7, PnuTSw mutant W199A; test: biochemical
[17] = target: T8, PnuTSw mutant W88A; test: biochemical

**Q.** What does the source list for `Cc1ncc(C[n+]2csc(CCOP(=O)(O)O)c2C)c(N)n1` [TMP, thiamine monophosphate]?
**A.** Dissociation constant Kd ([1]; ITC, 25°C): binding could not be detected; also recorded: neither TMP nor TPP could bind; also recorded: No binding; Inhibition of [3H]thiamine uptake [2]: did not inhibit transport; Counter flow of [3H]thiamine (transported substrate or not) [3]: did not trigger accumulation of the label

**Q.** What does the source list for `Cc1ncc(C[n+]2csc(CCO[P@](=O)(O)OP(=O)(O)O)c2C)c(N)n1` [TPP, thiamine pyrophosphate]?
**A.** Dissociation constant Kd ([1]; ITC, 25°C): binding could not be detected; also recorded: neither TMP nor TPP could bind; also recorded: No binding; Inhibition of [3H]thiamine uptake [2]: did not inhibit transport; Counter flow of [3H]thiamine (transported substrate or not) [3]: did not trigger accumulation of the label

**Q.** What does the source list for `Cc1ncc(C[n+]2csc(CCO)c2C)c(N)n1` [Thiamine, thiamine]?
**A.** Kd [1]: 12 ± 5 µM; ΔH ([1]; ITC, 25°C, WT PnuTSw): -6.45 ± 5.26 kcal/mol; ΔS ([1]; ITC, 25°C, WT PnuTSw): 5 ± 71 J/mol/K; Dissociation constant Kd [4]: neither of the mutations affected thiamine binding; Dissociation constant Kd [5]: neither of the mutations affected thiamine binding; Dissociation constant Kd [6]: did not affect the binding of thiamine; Dissociation constant Kd [7]: did not affect the binding of thiamine; Dissociation constant Kd [8]: could not be detected; Dissociation constant Kd ([8]; listed as thiamine): No binding; Dissociation constant Kd [9]: did not affect the binding of thiamine; Dissociation constant Kd [10]: did not affect the binding of thiamine; Thiamine transport activity of mutant [11]: unable to transport thiamine; Kd [12]: 23 ± 2 µM; Kd [13]: 26 ± 3 µM; Kd [14]: 21 ± 2 µM; Kd [15]: 17 ± 2 µM; Kd [16]: 12 ± 1 µM; Kd [17]: 13 ± 2 µM
